Assays:
[1] = literature value; cited from earlier work
[2] = Equilibrium dialysis plasma protein binding in a multi-well container; assay type: in vitro ADME; conditions: human plasma vs buffer, 37° C. with gentle shaking, LC/MS detection
Protocol: This example illustrates equilibrium dialysis assays that were performed in a multi-well container of the invention to measure small molecule drug binding to plasma proteins. The assays included filling one well of a pair of wells that communicated via a chamber having a membrane disposed therein with human plasma and the other well of the pair with buffer. The assay included filling multiple pairs of wells in this manner. Each of the small molecules was dispensed into different wells containing plasma. The entire multi-well container was then heated at 37° C. with gentle shaking. […] Binding percentages were determined following detection using liquid chromatography/mass spectrometry.

Row | Structure (SMILES) | Plasma binding percentage stated in the literature [1] | Human plasma binding percentage obtained in a multi-well container of the invention [2]
1 | CC(C)NCC(O)COc1cccc2ccccc12 (stereo not shown) [Propranolol] | 93% | 91%
2 | CN(C)CCCN1c2ccccc2CCc2ccccc21 [Imipramine] | 95% | 95%
3 | Cn1c(=O)c2[nH]cnc2n(C)c1=O [Theophylline] | 56% | 
4 | COc1cc(Cc2cnc(N)nc2N)cc(OC)c1OC [Trimethoprim] | 44% | 65%
5 | Cc1c(O)cccc1C(=O)N[C@@H](CSc1ccccc1)[C@H](O)CN1C[C@H]2CCCC[C@H]2C[C@H]1C(=O)NC(C)(C)C [Nelfinavir] | >98% | >99%
6 | CCCCNC(=O)NS(=O)(=O)c1ccc(C)cc1 [Tolbutamide] | 96% | 

Reference: patent US20050112033A1, “Multi-well containers, systems, and methods of using the same” (IRM, LLC, priority 2003, published 2005)
